What is called pIC50 is the IC50 on a negative log10 scale, so that one unit is a factor of ten. For orientation: pEC50 means −log10 of the EC50, conventionally taken in molar units.

pEC50, pIC50: −log10 of the molar value. *1 amine or outer side, *2 acyl side, *3 side chain or, on linkers, in order; H or OH if unused. Where a SMILES comes first, the peptide text is derived from it. Side-chain parts run from the residue outwards. The star is where a group is joined. γGlu = O=C(O)[C@H](CCC(=O)[*:2])N[*:1]; Desaminohistidyl = O=C(CCc1c[nH]cn1)*

Among the data in US9963496B2, “Stable glucagon analogues and use for treatment of hypoglycaemia” (Novo Nordisk A/S, priority 2014, dated 2018) are recovery, IC50 and EC50 values, retold here.

A short description of one data set: physchem. The data set is classed as physicochemical. Conditions: pH 7.5. An outline of the steps:
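Peptide at 250 μM in 10 mM HEPES pH 7.5 with 1 μM Thioflavin T, incubated at 37° C with 960 rpm orbital shaking. ThT fluorescence (ex 444/em 485 nm) read every 20 min; lag-time (t0−2τ) and kapp (1/τ) from curve fit. Recovery is post-assay supernatant peptide by RP-HPLC as % of initial.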

The target of data set [1] is T1, human glucagon receptor (Homo sapiens, UniProt P47871).
T1 construct: expressed in transfected cells; host or cells: BHK cells, clone BHK hGCGR A3*25; isolated membranes
Description: Assay (II)(b): glucagon receptor binding, 125I-glucagon displacement on isolated membranes (SPA). To be noted: displacement of 125I-glucagon, membranes of BHK cells with human glucagon receptor, 2 h at 25° C.; read-out: IC50 hGlucagonR. The protocol: (b) Glucagon Receptor Binding
The purpose of this assay was to test the in vitro receptor binding activity of the glucagon derivatives of the invention. The receptor binding activity is a measure of affinity of a derivative for the human glucagon receptor.
The receptor binding of each compound to the human glucagon receptor was measured in a displacement binding assay. In this type of assay a labelled ligand (in this case 125I-glucagon) is bound to the receptor. Each derivative is added in a series of concentrations to isolated membranes containing the human glucagon receptor and displacement of the labelled ligand is monitored. The receptor binding is reported as the concentration at which half of the labelled ligand is displaced from the receptor, the IC50 value.
HME buffer consisted of 25 mM HEPES, 2 mM MgCl2 and 1 mM EDTA, and pH was adjusted to 7.4. Binding buffer consisted of 50 mM HEPES supplemented with 5 mM MgCl2, 1 mM CaCl2, 0.02% Tween 20 and 0.1% Ovalbumin, and pH was adjusted to 7.4.
The cells used in this assay (clone BHK hGCGR A3*25) were BHK cells stable transfected with an expression plasmid containing the cDNA encoding the human glucagon receptor.
The cells were grown at 5% CO2 in DMEM, 10% fetal calf serum, 1% Pen/Strep (Penicillin/Streptomycin) and 1.0 mg/mL of the selection marker G418. To make a membrane preparation the cells were grown to approximately 80% confluence. The cells were washed twice in phosphate-buffered saline and harvested. The cells were pelleted using a brief centrifugation and the cell pellet was kept on ice. The cells were lysed by adding approx. 5 mL HME buffer, mix by pipetting and snap freeze in liquid nitrogen. The cell lysate was quickly thawed and HME buffer added to 10 mL. The cell pellet was homogenised with an ULTRA-THURRAX dispersing instrument for 20-30 seconds. The homogenate was centrifuged at 20,000×G, 4° C. for 10 minutes. The pellet was resuspended (homogenised) in 1-2 mL HME buffer. The protein concentration was determined. The membranes were aliquoted and snap frozen in liquid nitrogen and stored at minus 80° C.
• 1. For the receptor binding assay 50 μl of the assay buffer was added to each well of an assay plate. • 2. Test compounds were serially diluted to give the following concentrations: 8×10 EE-7 M, 8×10 EE-8 M, 8×10 EE-9 M, 8×10 EE-10 M, 8×10 EE-11 M, 8×10 EE-12 M and 8×10 EE-13 M. Twenty-five μl were added to appropriate wells in the assay plate. • 3. Cell membrane aliquots were thawed and diluted to their working concentration. Fifty μl were added to each well in the assay plate. • 4. WGA SPA beads were suspended in assay buffer at 20 mg/mL. The suspension was diluted to 10 mg/mL in assay buffer just prior to addition to the assay plate. Fifty μl were added to each well in the assay plate. • 5. The incubation was started by adding 25 μl of 480 pM solution of [125I]-glucagon to each well of the assay plate. A 25 μl aliquot was reserved for measuring total counts/well. • 6. The assay plate was incubated for 2 h at 25° C. • 7. The assay plate was centrifuged for 10 min at 1500 rpm. • 8. The assay plate was read in a Packard TopCount NXT instrument. Calculations
The data from the TopCount instrument were transferred to GraphPad Prism software. The software averaged the values for the replicates and performed a non-linear regression.
On the technique in general: In a radioligand displacement assay an active substance lowers the binding of a labelled ligand.

For data set [2], the target named is T1, human glucagon receptor. Description: Assay (I)(b): glucagon receptor activation, CRE luciferase reporter gene assay in BHK cells. The data set is classed as cell-based. To be noted: BHK cells expressing human glucagon receptor and CRE luciferase, 3 h incubation; read-out: EC50 hGlucagonR. In outline: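 BHK570 cells stably expressing the human glucagon receptor and CRE-luciferase, 5×10 EE3 cells/well in DMEM with 2% ovalbumin and 0.2% Pluronic F-68. Compounds at final 1×10 EE-6 to 1×10 EE-13 M, 3 h at 37° C. Luminescence read; EC50 by four-parameter fit.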
Background: Reporter assays use an easily measured gene product as a stand-in for the process of interest.

T1 sequence (P47871 26-477): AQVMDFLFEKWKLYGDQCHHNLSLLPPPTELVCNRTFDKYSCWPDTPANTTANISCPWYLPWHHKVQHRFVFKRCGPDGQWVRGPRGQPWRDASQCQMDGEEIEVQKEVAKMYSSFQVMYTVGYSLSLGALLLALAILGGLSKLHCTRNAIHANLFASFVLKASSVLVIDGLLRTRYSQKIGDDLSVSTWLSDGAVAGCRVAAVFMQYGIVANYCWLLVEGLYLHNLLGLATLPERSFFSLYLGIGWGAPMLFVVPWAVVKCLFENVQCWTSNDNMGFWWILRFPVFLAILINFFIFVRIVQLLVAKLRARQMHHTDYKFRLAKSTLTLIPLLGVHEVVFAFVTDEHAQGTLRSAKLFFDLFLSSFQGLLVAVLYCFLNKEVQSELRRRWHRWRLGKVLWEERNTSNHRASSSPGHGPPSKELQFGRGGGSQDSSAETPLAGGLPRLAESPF

In the case of `CC(=O)N[C@@H](CCC(=O)N[C@@H](CCC(=O)N[C@@H](CCC(=O)N[C@@H](CCC(=O)NCCCC[C@H](NC(=O)[C@@H](NC(=O)[C@H](Cc1ccccc1)NC(=O)[C@H](CCC(=O)O)NC(=O)[C@H](CCC(N)=O)NC(=O)[C@H](C)NC(=O)[C@H](CCCNC(=N)N)NC(=O)[C@H](CCCNC(=N)N)NC(=O)[C@H](CO)NC(=O)[C@H](CCC(=O)O)NC(=O)[C@H](CC(C)C)NC(=O)[C@H](Cc1ccc(O)cc1)NC(=O)[C@H](CCCCN)NC(=O)[C@H](CO)NC(=O)[C@H](Cc1ccc(O)cc1)NC(=O)[C@H](CC(=O)O)NC(=O)[C@H](CO)NC(=O)[C@@H](NC(=O)[C@H](Cc1ccccc1)NC(=O)[C@@H](NC(=O)CNC(=O)[C@H](Cc1c[nH]cn1)NC(=O)[C@H](CO)NC(=O)CCc1c[nH]cn1)[C@@H](C)O)[C@@H](C)O)C(C)C)C(=O)N[C@@H](Cc1c[nH]c2ccccc12)C(=O)N[C@@H](CC(C)C)C(=O)N[C@@H](CC(C)C)C(=O)N[C@@H](CO)C(=O)N[C@H](C(=O)O)[C@@H](C)O)C(=O)O)C(=O)O)C(=O)O)C(=O)O` [Example 6, N^ϵ24-[(4S)-4-[[(4S)-4-[[(4S)-4-[[(4S)-4-acetamido-4-carboxybutanoyl]amino]-4-carboxybutanoyl]amino]-4-carboxybutanoyl]amino]-4-carboxybutanoyl]-[Imp1, His3, Glu15, Glu21, Lys24, Leu27, Ser28]-Glucagon] (Desaminohistidyl-SHGTFTSDYSKYLESRRAQEFVK([γGlu-γGlu-γGlu-γGlu-Ac])WLLST-OH), the recovery at 250 μM in “physchem” was determined as 101%. Further, the negative logarithm of the IC50 (pIC50) on human glucagon receptor [1] is 8.74.

Take `CC(=O)N[C@@H](CCC(=O)N[C@@H](CCC(=O)N[C@@H](CCC(=O)N[C@@H](CCC(=O)NCCCC[C@H](NC(=O)[C@@H](NC(=O)[C@H](Cc1ccccc1)NC(=O)[C@H](CC(=O)O)NC(=O)[C@H](CCC(N)=O)NC(=O)[C@H](C)NC(=O)[C@H](CCCNC(=N)N)NC(=O)[C@H](CCCNC(=N)N)NC(=O)[C@H](CC(C)C)NC(=O)[C@H](CC(=O)O)NC(=O)[C@H](CC(C)C)NC(=O)[C@H](Cc1ccc(O)cc1)NC(=O)[C@H](CCCCN)NC(=O)[C@H](CO)NC(=O)[C@H](Cc1ccc(O)cc1)NC(=O)[C@H](CC(=O)O)NC(=O)[C@H](CO)NC(=O)[C@@H](NC(=O)[C@H](Cc1ccccc1)NC(=O)[C@@H](NC(=O)CNC(=O)[C@H](Cc1c[nH]cn1)NC(=O)[C@H](CO)NC(=O)CCc1c[nH]cn1)[C@@H](C)O)[C@@H](C)O)C(C)C)C(=O)N[C@@H](Cc1c[nH]c2ccccc12)C(=O)N[C@@H](CC(C)C)C(=O)N[C@@H](CC(C)C)C(=O)N[C@@H](CO)C(=O)N[C@H](C(=O)O)[C@@H](C)O)C(=O)O)C(=O)O)C(=O)O)C(=O)O` [Example 9, N^ϵ24-[(4S)-4-[[(4S)-4-[[(4S)-4-[[(4S)-4-acetamido-4-carboxybutanoyl]amino]-4-carboxybutanoyl]amino]-4-carboxybutanoyl]amino]-4-carboxybutanoyl]-[Imp1, His3, Leu16, Lys24, Leu27, Ser28]-Glucagon] (Desaminohistidyl-SHGTFTSDYSKYLDLRRAQDFVK([γGlu-γGlu-γGlu-γGlu-Ac])WLLST-OH): the recovery at 250 μM in the data set “physchem” is 100%. For the same compound, at human glucagon receptor [1], the pIC50 is 9.30.

In “physchem”, `CC(=O)N[C@@H](CCC(=O)N[C@@H](CCC(=O)N[C@@H](CCC(=O)N[C@@H](CCC(=O)NCCCC[C@H](NC(=O)[C@@H](NC(=O)[C@H](Cc1ccccc1)NC(=O)[C@H](CCC(=O)O)NC(=O)[C@H](CCC(N)=O)NC(=O)[C@H](C)NC(=O)[C@H](CCCNC(=N)N)NC(=O)[C@H](CCCNC(=N)N)NC(=O)[C@H](CO)NC(=O)[C@H](CCC(=O)O)NC(=O)[C@H](CC(C)C)NC(=O)[C@H](Cc1ccc(O)cc1)NC(=O)[C@H](CCCCN)NC(=O)[C@H](CO)NC(=O)[C@H](Cc1ccc(O)cc1)NC(=O)[C@H](CC(=O)O)NC(=O)[C@H](CO)NC(=O)[C@@H](NC(=O)[C@H](Cc1ccccc1)NC(=O)[C@@H](NC(=O)CNC(=O)[C@H](Cc1c[nH]cn1)NC(=O)[C@H](CO)NC(=O)CCc1c[nH]cn1)[C@@H](C)O)[C@@H](C)O)C(C)C)C(=O)N[C@@H](Cc1c[nH]c2ccccc12)C(=O)N[C@@H](CC(C)C)C(=O)N[C@@H](CC(C)C)C(=O)N[C@@H](CCC(=O)O)C(=O)N[C@H](C(=O)O)[C@@H](C)O)C(=O)O)C(=O)O)C(=O)O)C(=O)O` [Example 22, N^ϵ24-[(4S)-4-[[(4S)-4-[[(4S)-4-[[(4S)-4-acetamido-4-carboxybutanoyl]amino]-4-carboxybutanoyl]amino]-4-carboxybutanoyl]amino]-4-carboxybutanoyl]-[Imp1, His3, Glu15, Glu21, Lys24, Leu27, Glu28]-Glucagon] (Desaminohistidyl-SHGTFTSDYSKYLESRRAQEFVK([γGlu-γGlu-γGlu-γGlu-Ac])WLLET-OH) showed a recovery at 250 μM of 100%. Besides, the pEC50 on human glucagon receptor [2] was 10.77.
